The record followed here is US12378224B2 (Dong-A Socio Holdings Co., Ltd., priority 2016, dated 2025).

Test [1] deals with BCR fusion to kinase domain of MerTK (Ba/F3-MerTK) (Homo sapiens, UniProt Q12866). In words: In Cell TAM Kinase Assay Using BaF3 Cellular System. In kind it is cell-based, murine. The settings on record: Ba/F3 BCR-kinase fusion proliferation, 72 hours, Cell Titer Glo; kinase not given; read-out: IC50. An excerpt: Three Ba/F3 cell lines (a murine IL-3 dependent pro-B cell line) expressing BCR fusions to the kinase domains of either MerTK (Ba/F3-MerTK), Axl (Ba/F3-Axl), or Tyro3 (Ba/F3-Tyro3) were purchased from Advanced Cellular Dynamics. The IL-3 independence of all 3 cell lines was confirmed. After thawing, the 3 Ba/F3 cell lines were split and maintained in cell culture media, which consisted of RPMI-1640-HEPES (Thermo-Cat #22400-089) with 1× Glutamax (Thermo-Cat #35050-061) and 10% FBS (Sigma-Cat #F4135 (500 ml), at a cell density range of 0.05×10^6−1×10^6 cells/mL 4 days before used in the routine screen. Compound plates were prepared using Nunc™ white 384-well optical bottom plates (ThermoFisher, USA) with compound in 25 nL dimethyl sulfoxide in each well. For routine assays, each of the 3 Ba/F3 cell lines was seeded at 1,000 cells per well with 25 µL of cell culture media directly into 384-well compound plates and incubated for 72 hours. Cell proliferation was then measured by adding 25 μL of Cell Titer Glo 2.0 (Promega, USA). After incubating with Cell Titer Glo at room temperature for 30 mins, the luminescence intensity, which quantifies the cell viability, was measured using an Envision™ plate reader (PerkinElmer, USA). […] In the presence of IL-3, the proliferation of the Ba/F3-Tyro3 cells is no longer dependent on the Tyro3 kinase activity.
BCR fusion to kinase domain of MerTK (Ba/F3-MerTK), sequence (Q12866 21-999 limits assumed, stated change not applied): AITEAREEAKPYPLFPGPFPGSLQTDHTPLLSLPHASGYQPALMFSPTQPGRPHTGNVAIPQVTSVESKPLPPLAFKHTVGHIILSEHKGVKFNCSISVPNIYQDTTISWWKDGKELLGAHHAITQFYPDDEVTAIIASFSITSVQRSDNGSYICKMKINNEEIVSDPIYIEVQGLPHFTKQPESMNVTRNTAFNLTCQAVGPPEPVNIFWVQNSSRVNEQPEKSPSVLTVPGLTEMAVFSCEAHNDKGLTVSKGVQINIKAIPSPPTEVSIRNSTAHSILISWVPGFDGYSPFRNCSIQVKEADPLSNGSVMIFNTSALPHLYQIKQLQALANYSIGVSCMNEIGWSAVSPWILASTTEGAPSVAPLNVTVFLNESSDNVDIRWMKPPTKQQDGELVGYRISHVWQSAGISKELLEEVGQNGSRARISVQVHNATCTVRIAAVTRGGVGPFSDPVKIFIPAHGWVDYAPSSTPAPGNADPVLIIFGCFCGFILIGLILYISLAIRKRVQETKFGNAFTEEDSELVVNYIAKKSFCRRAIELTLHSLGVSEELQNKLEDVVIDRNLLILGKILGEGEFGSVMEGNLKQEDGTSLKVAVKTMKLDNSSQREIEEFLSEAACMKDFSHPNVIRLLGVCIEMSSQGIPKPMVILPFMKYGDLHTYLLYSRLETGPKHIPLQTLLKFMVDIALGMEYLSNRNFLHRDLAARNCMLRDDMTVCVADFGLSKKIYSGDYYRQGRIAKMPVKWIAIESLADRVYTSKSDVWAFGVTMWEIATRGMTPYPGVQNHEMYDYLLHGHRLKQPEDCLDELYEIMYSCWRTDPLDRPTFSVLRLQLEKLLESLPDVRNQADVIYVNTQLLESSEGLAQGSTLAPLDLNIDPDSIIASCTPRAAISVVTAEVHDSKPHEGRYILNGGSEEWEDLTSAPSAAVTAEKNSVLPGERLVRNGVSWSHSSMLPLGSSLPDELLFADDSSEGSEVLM
In general terms: Cellular ATP, detected with luciferase, serves as a proxy for viable cell number.

A further test deals with human MER (528-end) (Homo sapiens (Human), UniProt Q12866). In words: HTRF Kinase Activity Biochemical Assay (KinEASE-TK). Conditions: 10 uM ATP. The procedure, abridged: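 Activity read-out is the HTRF ratio (665 nm over 620 nm emission, ×10,000; excitation 340 nm) after 1 h detection with 0.375 nM Eu3+-cryptate anti-TK antibody plus 0.062 uM SA-XL665. Preceding kinase step: human MER (528-end), biotinylated TK substrate, 1 h, room temperature.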
human MER (528-end), sequence (Q12866 528-999 limits assumed): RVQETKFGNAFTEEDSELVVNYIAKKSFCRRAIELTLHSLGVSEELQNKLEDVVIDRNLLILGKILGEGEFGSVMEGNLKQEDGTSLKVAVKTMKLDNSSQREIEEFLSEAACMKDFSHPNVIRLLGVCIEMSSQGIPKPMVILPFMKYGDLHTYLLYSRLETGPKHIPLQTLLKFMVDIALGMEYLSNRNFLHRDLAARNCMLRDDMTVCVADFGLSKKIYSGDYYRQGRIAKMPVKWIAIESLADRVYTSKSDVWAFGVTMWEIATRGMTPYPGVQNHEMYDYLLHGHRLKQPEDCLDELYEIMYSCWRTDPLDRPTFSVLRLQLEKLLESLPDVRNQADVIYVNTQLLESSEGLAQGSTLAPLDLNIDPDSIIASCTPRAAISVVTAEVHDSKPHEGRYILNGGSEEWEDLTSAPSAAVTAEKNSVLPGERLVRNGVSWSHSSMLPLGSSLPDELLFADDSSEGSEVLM
(TR-FRET usually uses a lanthanide donor and a delayed reading to cut background.)

Usually IC50 stands for the concentration needed to halve the response being measured. In the case of `Cn1cc(-c2cnc(N)c(C(=O)N[C@@H]3CCN(C(=O)c4ccc5cnccc5n4)C3)c2)cn1` [Example 700, (R)—N-(1-(1,6-naphthyridine-2-carbonyl)pyrrolidin-3-yl)-2-amino-5-(1-methyl-1H-pyrazol-4-yl)nicotinamide], the half-inhibitory concentration (IC50) (in test [1]; against human MER (528-end)) was > 1000 nM in each case.
Consider `CN1C(C)(C)CC(Nc2ccc3cc(C(=O)N4CC[C@@H](NC(=O)c5cc(-c6cnn(C)c6)cnc5N)C4)ccc3c2)CC1(C)C` [Example 722, (R)-2-amino-5-(1-methyl-1H-pyrazol-4-yl)-N-(1-(6-((1,2,2,6,6-pentamethylpiperidin-4-yl)amino)-2-naphthoyl)pyrrolidin-3-yl)nicotinamide], for which the concentration for half-maximal inhibition (IC50) (in test [1]; against human MER (528-end)) was > 1000 nM each time.
With `Nc1ncc(-c2ccc(C(=O)N3CCOCC3)c(Cl)c2)cc1C(=O)N[C@@H]1CCN(C(=O)c2ccc(-c3ccc(F)cc3Cl)cc2)C1` [Example 781, (R)-2-amino-N-(1-(2′-chloro-4′-fluoro-[1,1′-biphenyl]-4-carbonyl)pyrrolidin-3-yl)-5-(3-chloro-4-(morpholine-4-carbonyl)phenyl)nicotinamide], the 50% inhibitory concentration (IC50) in test [1] was > 1000 nM; at human MER (528-end), 10 to 100 nM.
For the compound `Cn1cc(-c2cnc(N)c(C(=O)N[C@@H]3CCN(C(=O)c4ccc(-c5ccc(Oc6ccncc6)cc5)cc4)C3)c2)cn1` [Example 798, (R)-2-amino-5-(1-methyl-1H-pyrazol-4-yl)-N-(1-(4′-(pyridin-4-yloxy)-[1,1′-biphenyl]-4-carbonyl)pyrrolidin-3-yl)nicotinamide], the half-maximal inhibitory concentration (IC50) was > 1000 nM in test [1] and 10 to 100 nM at human MER (528-end).
The like results for “(R)-2-amino-N-(1-(4′-(4-hydroxyphenoxy)-[1,1′-biphenyl]-4-carbonyl)pyrrolidin-3-yl)-5-(1-methyl-1H-pyrazol-4-yl)nicotinamide [Example 800]” were, in that order, > 1000 nM and 10 to 100 nM.
The like results for `Cn1cc(-c2cnc(N)c(C(=O)N[C@@H]3CCN(C(=O)c4ccc(-c5ccc(Oc6ccnc(Cl)c6)cc5)cc4)C3)c2)cn1` [Example 795, (R)-2-amino-N-(1-(4′-((2-chloropyridin-4-yl)oxy)-[1,1′-biphenyl]-4-carbonyl)pyrrolidin-3-yl)-5-(1-methyl-1H-pyrazol-4-yl)nicotinamide] were, in that order, 500 to 1000 nM and 10 to 100 nM.
Regarding `Cn1cc(-c2cnc(N)c(C(=O)N[C@@H]3CCN(C(=O)c4ccc(-c5ccc(Cl)s5)cc4)C3)c2)cn1` [Example 534, (R)-2-amino-N-(1-(4-(5-chlorothiophen-2-yl)benzoyl)pyrrolidin-3-yl)-5-(1-methyl-1H-pyrazol-4-yl)nicotinamide], the half-inhibitory concentration (IC50) in test [1] was > 1000 nM; on human MER (528-end) it was 10 to 100 nM.
Consider `Cn1cc(-c2cnc(N)c(C(=O)N[C@@H]3CCN(C(=O)c4ccc(-c5ccc(C=O)cc5)cc4)C3)c2)cn1` [Example 381, (R)-2-amino-N-(1-(4′-formyl-[1,1′-biphenyl]-4-carbonyl)pyrrolidin-3-yl)-5-(1-methyl-1H-pyrazol-4-yl)nicotinamide], for which the 50% inhibitory concentration (IC50) in test [1] is > 1000 nM; on human MER (528-end), 100 to 1000 nM.
`CN1CCC(COc2ccc3cc(C(=O)N4CC[C@@H](NC(=O)c5cc(-c6cnn(C)c6)cnc5N)C4)ccc3c2)CC1` [Example 767, (R)-2-amino-5-(1-methyl-1H-pyrazol-4-yl)-N-(1-(6-((1-methylpiperidin-4-yl)methoxy)-2-naphthoyl)pyrrolidin-3-yl)nicotinamide]: the figures for the half-inhibitory concentration (IC50) (in test [1]; at human MER (528-end)) were > 1000 nM and 100 to 1000 nM, respectively.
Taken in the same sequence, the figures for `CN(c1ccc(-c2ccc(C(=O)N3CC[C@@H](NC(=O)c4cc(-c5cnn(C)c5)cnc4N)C3)cc2)cc1)c1ccc([N+](=O)[O-])cc1F` [Example 804, (R)-2-amino-N-(1-(4′-((2-fluoro-4-nitrophenyl)(methyl)amino)-[1,1′-biphenyl]-4-carbonyl)pyrrolidin-3-yl)-5-(1-methyl-1H-pyrazol-4-yl)nicotinamide] were > 1000 nM and 100 to 1000 nM.
As to “(R)-2-amino-N-(1-(2′-chloro-4′-fluoro-[1,1′-biphenyl]-4-carbonyl)pyrrolidin-3-yl)-5-(2-(piperidin-4-ylmethoxy)phenyl)nicotinamide [Example 771]”, the IC50 in test [1] was > 1000 nM; on human MER (528-end), 100 to 1000 nM.
The like results for `Cn1cc(-c2cnc(N)c(C(=O)N[C@@H]3CCN(C(=O)c4cc5ccccc5n4Cc4ccccc4)C3)c2)cn1` [Example 702, (R)-2-amino-N-(1-(1-benzyl-1H-indole-2-carbonyl)pyrrolidin-3-yl)-5-(1-methyl-1H-pyrazol-4-yl)nicotinamide] were, in that order, > 1000 nM and > 1000 nM.
The like results for `Cn1cc(-c2cnc(N)c(C(=O)N[C@@H]3CCN(C(=O)c4ccc(-c5ccc(CO)cc5)cc4)C3)c2)cn1` [Example 747, (R)-2-amino-N-(1-(4′-(hydroxymethyl)-[1,1′-biphenyl]-4-carbonyl)pyrrolidin-3-yl)-5-(1-methyl-1H-pyrazol-4-yl)nicotinamide] were, in that order, > 1000 nM and 100 to 1000 nM.
Regarding `Cn1cc(-c2cnc(N)c(C(=O)N[C@@H]3CCN(C(=O)c4cc5cc(Br)ccc5s4)C3)c2)cn1` [Example 708, (R)-2-amino-N-(1-(5-bromobenzo[b]thiophene-2-carbonyl)pyrrolidin-3-yl)-5-(1-methyl-1H-pyrazol-4-yl)nicotinamide], the IC50 lay within 500 to 1000 nM in test [1] and 100 to 1000 nM against human MER (528-end).
Take `Cn1cc(-c2cnc(N)c(C(=O)N[C@@H]3CCN(C(=O)c4ccc(OCc5cccc(N)c5)cc4)C3)c2)cn1` [Example 838, (R)-2-amino-N-(1-(4-((3-aminobenzyl)oxy)benzoyl)pyrrolidin-3-yl)-5-(1-methyl-1H-pyrazol-4-yl)nicotinamide]: the values for the IC50 (in test [1]; against human MER (528-end)) were > 1000 nM and 100 to 1000 nM, respectively.
Regarding `Nc1ccccc1-c1cnc(N)c(C(=O)N[C@@H]2CCN(C(=O)c3ccc(-c4ccc(F)cc4Cl)cc3)C2)n1` [Example 779, (R)-3-amino-6-(2-aminophenyl)-N-(1-(2′-chloro-4′-fluoro-[1,1′-biphenyl]-4-carbonyl)pyrrolidin-3-yl)pyrazine-2-carboxamide], the figures for the IC50 (in test [1]; against human MER (528-end)) were > 1000 nM and 100 to 1000 nM, respectively.
Taken in the same sequence, the figures for `Nc1ncc(-c2ccc(F)nc2)cc1C(=O)N[C@@H]1CCN(C(=O)c2ccc(-c3ccc(F)cc3Cl)cc2)C1` [Example 774, (R)-6-amino-N-(1-(2′-chloro-4′-fluoro-[1,1′-biphenyl]-4-carbonyl)pyrrolidin-3-yl)-6^1-fluoro-[3,3′-bipyridine]-5-carboxamide] were 100 to 500 nM and 10 to 100 nM.
For `CN(C)CCOc1ccc2cc(C(=O)N3CC[C@@H](NC(=O)c4cc(-c5cnn(C)c5)cnc4N)C3)ccc2c1` [Example 762], the values for the IC50 (in test [1]; against human MER (528-end)) were > 1000 nM and 100 to 1000 nM, respectively.
Take `Cn1cc(-c2cnc(N)c(C(=O)N[C@@H]3CCN(C(=O)c4c[nH]c(=O)n(-c5ccc(F)cc5)c4=O)C3)c2)cn1` [Example 707, (R)-2-amino-N-(1-(3-(4-fluorophenyl)-2,4-dioxo-1,2,3,4-tetrahydropyrimidine-5-carbonyl)pyrrolidin-3-yl)-5-(1-methyl-1H-pyrazol-4-yl)nicotinamide]: the IC50 (in test [1]; against human MER (528-end)) was > 1000 nM in each case.
On to `CN(C)C(=O)c1ccc(Oc2ccc(-c3ccc(C(=O)N4CC[C@@H](NC(=O)c5cc(-c6cnn(C)c6)cnc5N)C4)cc3)cc2)cc1` [Example 787, (R)-2-amino-N-(1-(4′-(4-(dimethylcarbamoyl)phenoxy)-[1,1′-biphenyl]-4-carbonyl)pyrrolidin-3-yl)-5-(1-methyl-1H-pyrazol-4-yl)nicotinamide], for which the IC50 in test [1] is > 1000 nM; at human MER (528-end), 10 to 100 nM.
The like results for `Cn1cc(-c2cnc(N)c(C(=O)N[C@@H]3CCN(C(=O)c4ccc5cccnc5n4)C3)c2)cn1` [Example 699, (R)—N-(1-(1,8-naphthyridine-2-carbonyl)pyrrolidin-3-yl)-2-amino-5-(1-methyl-1H-pyrazol-4-yl)nicotinamide] were, in that order, > 1000 nM and > 1000 nM.
As for `CC(/C=C/c1ccc(C(=O)N2CC[C@@H](NC(=O)c3cc(-c4cnn(C)c4)cnc3N)C2)cc1)N1CCN(CCO)CC1` (stereo partly drawn) [Example 823, 2-amino-N-((3R)-1-(4-((E)-3-(4-(2-hydroxyethyl)piperazin-1-yl)but-1-en-1-yl)benzoyl)pyrrolidin-3-yl)-5-(1-methyl-1H-pyrazol-4-yl)nicotinamide], the IC50 was > 1000 nM in test [1] and 10 to 100 nM on human MER (528-end).
The like results for `Cc1cscc1-c1ccc(C(=O)N2CC[C@@H](NC(=O)c3cc(-c4cnn(C)c4)cnc3N)C2)cc1` [Example 523, (R)-2-amino-5-(1-methyl-1H-pyrazol-4-yl)-N-(1-(4-(4-methylthiophen-3-yl)benzoyl)pyrrolidin-3-yl)nicotinamide] were, in that order, 500 to 1000 nM and 10 to 100 nM.
